Laboratory results from patent US7569588B2, “Biphenyl compounds useful as muscarinic receptor antagonists” (Theravance, Inc., priority 2004, dated 2009).

Tests used:
[1] = test system: MCh-induced depressor responses; experiment: Methacholine-induced depressor responses in conscious guinea pigs; format: in vivo; details: guinea pig, inhalation
Excerpt: Healthy, adult, male Sprague-Dawley guinea pigs (Harlan, Indianapolis, Ind.), weighing between 200 and 300 g were used in these studies. Under isoflurane anesthesia (to effect), animals were instrumented with common carotid artery and jugular vein catheters (PE-50 tubing). The catheters were exteriorized utilizing a subcutaneous tunnel to the subscapular area. All surgical incisions were sutured with 4-0 Ethicon Silk and the catheters locked with heparin (1000 units/mL). Each animal was administered saline (3 mL, SC) at the end of surgery as well as buprenorphine (0.05 mg/kg, IM). Animals were allowed to recover on a heating pad before being returned to their holding rooms.
Approximately 18 to 20 hours following surgery, the animals were weighed and the carotid artery catheter on each animal was connected to a transducer for recording arterial pressure. Arterial pressure and heart rate was recorded using a Biopac MP-100 Acquisition System. Animals were allowed to acclimate and stabilize for a period of 20 minutes.
Each animal was challenged with MCh (0.3 mg/kg, IV) administered through the jugular venous line and the cardiovascular response was monitored for 10 minutes. […] At 1.5 and 24 hours post-dosing, the animals were re-challenged with MCh (0.3 mg/kg, IV) and the hemodynamic response was determined. […]

hM3 receptor (CHO cells) = target: T1, hM3 receptor (CHO cells) (Homo sapiens, UniProt P20309); experiment: Blockade of agonist-mediated calcium release via FLIPR assay; format: cell-based; details: CHO cells stably expressing the hM3 receptor
T1 construct: expressed in transfected cells
Excerpt: C. Blockade of Agonist-Mediated Calcium Release via FLIPR Assays
Muscarinic receptor subtypes (M1, M3 and M5 receptors), which couple to Gq proteins, activate the phospholipase C (PLC) pathway upon agonist binding to the receptor. As a result, activated PLC hydrolyzes phosphatyl inositol diphosphate (PIP2) to diacylglycerol (DAG) and phosphatidyl-1,4,5-triphosphate (IP3), which in turn generates calcium release from intracellular stores, i.e., endoplasmic and sarcoplasmic reticulum. […] This fluorescence event was measured in real time by the FLIPR, which detected the change in fluorescence from a monolayer of cells cloned with human M1 and M3, and chimpanzee M5 receptors. Antagonist potency was determined by the ability of antagonists to inhibit agonist-mediated increases in intracellular calcium. […]
To determine antagonist potency, the dose-dependent stimulation of intracellular Ca^2+release for oxotremorine was first determined so that antagonist potency can later be measured against oxotremorine stimulation at an EC90 concentration. […] Baseline was determined by measuring the change in fluorescence for 10 seconds prior to addition of agonist. Following agonist stimulation, the FLIPR continuously measured the change of fluorescence every 0.5 to 1 second for 1.5 minutes to capture the maximum fluorescence change. […]

[2] = target: T2, hM2 receptor (CHO-K1 cell membranes) (Homo sapiens, UniProt P08172); experiment: Blockade of agonist-mediated (oxotremorine-stimulated) [35S]GTPγS binding; format: biochemical; details: CHO-K1 cells expressing the hM2 receptor
T2 construct: expressed in transfected cells; host or cells: membranes of CHO (CHO-K1) cells stably expressing the cloned human receptor
T2 sequence (P08172 1-466): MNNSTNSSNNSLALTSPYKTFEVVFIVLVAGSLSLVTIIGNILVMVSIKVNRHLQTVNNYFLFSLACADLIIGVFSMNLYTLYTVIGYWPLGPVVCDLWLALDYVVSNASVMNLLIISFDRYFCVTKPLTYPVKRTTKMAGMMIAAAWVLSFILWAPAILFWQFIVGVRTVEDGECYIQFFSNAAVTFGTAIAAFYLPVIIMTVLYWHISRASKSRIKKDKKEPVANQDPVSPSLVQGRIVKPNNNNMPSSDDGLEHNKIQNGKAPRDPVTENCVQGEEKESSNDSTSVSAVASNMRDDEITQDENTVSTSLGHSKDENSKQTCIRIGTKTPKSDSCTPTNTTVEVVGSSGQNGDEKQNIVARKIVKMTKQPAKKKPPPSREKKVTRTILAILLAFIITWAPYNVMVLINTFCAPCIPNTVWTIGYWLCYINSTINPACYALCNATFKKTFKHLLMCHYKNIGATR
Procedure: B. Blockade of Agonist-Mediated [^35S]GTPγS Binding
In a second functional assay, the functional potency of test compounds can be determined by measuring the ability of the compounds to block oxotremorine-stimulated [^35S]GTPγS binding in CHO—K1 cells expressing the hM2 receptor.
At the time of use, frozen membranes were thawed and then diluted in assay buffer with a final target tissue concentration of 5-10 μg protein per well. The membranes were briefly homogenized using a Polytron PT-2 100 tissue disrupter and then added to the assay plates.
The EC90 value (effective concentration for 90% maximal response) for stimulation of[^35S]GTPγS binding by the agonist oxotremorine was determined in each experiment.
To determine the ability of a test compound to inhibit oxotremorine-stimulated [^35S]GTPγS binding, the following was added to each well of 96 well plates: 25 μL of assay buffer with [^35S]GTPγS (0.4nM), 25 μL of oxotremorine(ECgo) and GDP (3 μM), 25 μL of diluted test compound and 25 μL CHO cell membranes expressing the hM2 receptor. […] Microscint-20 scintillation liquid (50 μL) was added to each well, and each plate was sealed and radioactivity counted on a topcounter (PerkinElmer). Data were analyzed by nonlinear regression analysis with the GraphPad Prism Software package (GraphPad Software, Inc., San Diego, Calif.) using the non-linear regression, one-site competition equation. […]

[3] = target: T3, hM2 receptor (CHO-K1 cells) (Homo sapiens, UniProt P08172); experiment: Blockade of agonist-mediated (oxotremorine) inhibition of forskolin-mediated cAMP accumulation; format: cell-based; details: CHO-K1 cells expressing the hM2 receptor
T3 construct: expressed in transfected cells; host or cells: CHO-K1 cells
T3 sequence (P08172 1-466): T2 sequence (P08172 1-466)
Procedure: A. Blockade of Agonist-Mediated Inhibition of cAMP Accumulation
In this assay, the functional potency of a test compound was determined by measuring the ability of the test compound to block oxotremorine-inhibition of forskolin-mediated cAMP accumulation in CHO—K1 cells expressing the hM2 receptor.
cAMP assays were performed in a radioimmunoassay format using the Flashplate Adenylyl Cyclase Activation Assay System with ^1251-cAMP (NEN SMP004B, PerkinElmer Life Sciences Inc., Boston, Mass.), according to the manufacturer's instructions.
Cells were rinsed once with dPBS and lifted with Trypsin-EDTA solution (0.05% trypsin/0.53 mM EDTA) as described in the Cell Culture and Membrane Preparation section above. […] The cell pellet was then re-suspended in 10 mL dPBS, and the cells were counted with a Coulter Z1 Dual Particle Counter (Beckman Coulter, Fullerton, Calif.). […]
Reactions were incubated for 10 minutes at 37° C. and stopped by addition of 100 μL ice-cold detection buffer. Plates were sealed, incubated overnight at room temperature and counted the next morning on a PerkinElmer TopCount liquid scintillation counter (PerkinElmer Inc., Wellesley, Mass.). The amount of cAMP produced (pmol/well) was calculated based on the counts observed for the samples and cAMP standards, as described in the manufacturer's user manual. […]

[4] = test system: ACh-induced bronchoconstriction; experiment: Duration of bronchoprotection in guinea pig model of acetylcholine-induced bronchoconstriction; format: in vivo; details: inhalation, 1.5 hours post-dose
Procedure: Groups of six male guinea pigs (Duncan-Hartley (HsdPoc:DH) Harlan, Madison, Wisc.) weighing between 250 and 350 g were individually identified by cage cards. Throughout the study animals were allowed access to food and water ad libitum.
Test compounds were administered via inhalation over 10 minutes in a whole-body exposure dosing chamber (R&S Molds, San Carlos, Calif.). The dosing chambers were arranged so that an aerosol was simultaneously delivered to 6 individual chambers from a central manifold. Guinea pigs were exposed to an aerosol of a test compound or vehicle (WFI). […] This was measured gravimetrically by comparing pre-and post-nebulization weights of the filled nebulizer.
The bronchoprotective effects of test compounds administered via inhalation were evaluated using whole body plethysmography at 1.5, 24, 48 and 72 hours post-dose.
Forty-five minutes prior to the start of the pulmonary evaluation, each guinea pig was anesthetized with an intramuscular injection of ketamine (43.75 mg/kg), xylazine (3.50 mg/kg) and acepromazine (1.05 mg/kg). […] The depth of anesthesia was monitored and adjusted if the animal responded to pinching of its paw or if the respiration rate was greater than 100 breaths/minute. […]
Starting this program initiated the experimental protocol and data collection. […] By integrating this signal over time, a measurement offlow was calculated for each breath. […]

[5] = test system: pilocarpine-evoked salivation; experiment: Inhalation guinea pig salivation assay (pilocarpine-evoked salivation); format: in vivo
Procedure: Guinea pigs (Charles River, Wilmington, Mass.) weighing 200-350 g were acclimated to the in-house guinea pig colony for at least 3 days following arrival. Test compound or vehicle were dosed via inhalation (IH) over a 10 minute time period in a pie shaped dosing chamber (R&S Molds, San Carlos, Calif.). Test solutions were dissolved in sterile water and delivered using a nebulizer filled with 5.0 mL of dosing solution. Guinea pigs were restrained in the inhalation chamber for 30 minutes. During this time, guinea pigs were restricted to an area of approximately 110 sq. cm. This space was adequate for the animals to turn freely, reposition themselves, and allow for grooming. […] Upon completion of nebulization, guinea pigs were evaluated at 1.5, 6, 12, 24, 48, or 72 hrs after treatment.
Guinea pigs were anesthetized one hour before testing with an intramuscular (IM) injection of a mixture of ketamine 43.75 mg/kg, xylazine 3.5 mg/kg, and acepromazine 1.05 mg/kg at an 0.88 mL/kg volume. […] Saliva was collected for 10 minutes, at which point the gauze pad was weighed and the difference in weight recorded to determine the amount of accumulated saliva (in mg). The mean amount of saliva collected for animals receiving the vehicle and each dose of test compound was calculated. […] Results were calculated using result means (n=3 or greater). […]

T1 sequence (P20309 whole entry): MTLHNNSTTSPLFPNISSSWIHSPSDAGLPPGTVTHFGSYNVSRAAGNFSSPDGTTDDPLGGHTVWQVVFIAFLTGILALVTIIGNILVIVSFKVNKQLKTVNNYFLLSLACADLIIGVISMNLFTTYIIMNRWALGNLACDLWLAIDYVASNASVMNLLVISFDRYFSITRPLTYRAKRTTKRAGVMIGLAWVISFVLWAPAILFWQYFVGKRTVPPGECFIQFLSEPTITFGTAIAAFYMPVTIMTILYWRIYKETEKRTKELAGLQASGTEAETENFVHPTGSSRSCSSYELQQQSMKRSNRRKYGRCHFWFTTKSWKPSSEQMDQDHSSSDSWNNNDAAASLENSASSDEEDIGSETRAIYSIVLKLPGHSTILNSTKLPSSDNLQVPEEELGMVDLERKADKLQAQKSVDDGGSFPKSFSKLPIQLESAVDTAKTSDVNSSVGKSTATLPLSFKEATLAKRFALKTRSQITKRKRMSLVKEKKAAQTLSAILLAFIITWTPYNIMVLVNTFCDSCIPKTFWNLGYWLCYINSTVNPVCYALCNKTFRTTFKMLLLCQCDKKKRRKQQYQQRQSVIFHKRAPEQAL

O=C(CCN1CCC(OC(=O)Nc2ccccc2-c2ccccc2)CC1)NCCCCCNCCc1ccc(O)cc1 [Example 1, Biphenyl-2-ylcarbamic Acid 1-(2-{5-[2-(4-Hydroxyphenyl)ethylamino]pentylcarbamoyl}ethyl)piperidin-4-yl Ester]
apparent lung-selectivity index (ratio of anti-depressor ID50 to bronchoprotective ID50) [1]: greater than 5

O=C(CCN1CCC(OC(=O)Nc2ccccc2-c2ccccc2)CC1)NCCCCCNCc1ccc(O)cc1 [Example 2, Biphenyl-2-ylcarbamic Acid 1-{2-[5-(4-Hydroxybenzylamino)pentylcarbamoyl]ethyl}piperidin-4-yl Ester]
Ki (hM3 receptor (CHO cells)): < 10 nM | Ki [2]: < 10 nM

CN(CCCCCNC(=O)CCN1CCC(OC(=O)Nc2ccccc2-c2ccccc2)CC1)Cc1ccc(O)cc1 [Example 3, Biphenyl-2-ylcarbamic Acid 1-(2-{5-[(4-Hydroxybenzyl)methylamino]pentylcarbamoyl}ethyl)piperidin-4-yl Ester]
Ki [3]: < 10 nM | PD2(50) for ACh-induced bronchoconstriction [4]: less than 200 μg/mL

N[C@@H](Cc1ccc(O)cc1)C(=O)NCCCCCNC(=O)CCN1CCC(OC(=O)Nc2ccccc2-c2ccccc2)CC1 [Example 6, Biphenyl-2-ylcarbamic Acid 1-(2-{5-[(S)-2-Amino-3-(4-Hydroxyphenyl)propionylamino]pentylcarbamoyl}ethyl)piperidin-4-yl Ester]
apparent lung selectivity index (ratio of anti-sialagogue ID50 to bronchoprotective ID50) [5]: greater than 5
